Species: Rattus norvegicus
Assay: Open TG-GATES - Regimen: Daily Repeat
Assay type: toxicity, organism-based, Sprague-Dawley
Parameters: regimen Daily Repeat, gender Male, age 6 weeks
Settings: in vivo, po, route gavage; for TP / gamma-GTP / A/G / ALP / ALT / AST / BUN / CRE / Ca / Cl / GLC / IP / K / LDH / Na / PL / RALB / TC / TG: tissue Plasma; for APTT / Bas / Eos / Fbg / Hb / Ht / Lym / MCH / MCHC / MCV / Mono / Neu / PT / Plat / RBC / Ret / WBC: tissue Blood; for KIDNEY_L / KIDNEY_R / KIDNEY_TOTAL: tissue Kidney; for LIVER: tissue Liver
[1] = 300 mg/kg, […], dose level Middle, time 28 day
[2] = 1000 mg/kg, 72 h, dose level High, time 3 day
[3] = 1000 mg/kg, […], dose level High, time 7 day
[4] = 1000 mg/kg, […], dose level High, time 14 day
[5] = 1000 mg/kg, […], dose level High, time 28 day

In the case of `O=C(O)c1ccccc1Nc1ccccc1` [FENAMIC ACID], the TP [1] was 6.4 g/dL, the gamma-GTP [1] was 1 IU/L and the TERMINAL_BW [2] was 219.3 g. It also gave an APTT [2] of 17 s, a Bas [2] of 0.3% and an Eos [2] of 0.7%. It also gave a Fbg [2] of 440 mg/dL, a Hb [2] of 13.3 g/dL and a Ht [2] of 39.3%. It also gave a Lym [2] of 50.3%, an MCH [2] of 20.5 pg and an MCHC [2] of 33.8%. The MCV [2] was 60.5 fL, the Mono [2] was 3.3% and the Neu [2] was 44.3%. The PT [2] was 14 s, the Plat [2] was 127 x10_4/uL and the RBC [2] was 650 x10_4/ul. For the same compound, the Ret [2] was 5.7%, the WBC [2] was 132.2 x10_2/uL and the KIDNEY_L [2] was 1.1 g. It also gave a KIDNEY_R [2] of 1.1 g, a KIDNEY_TOTAL [2] of 2.1 g and an LIVER [2] of 10.8 g. For the same compound, the A/G [2] was 0.9, the ALP [2] was 1423.7 IU/L and the ALT [2] was 37.7 IU/L. For the same compound, the AST [2] was 58.3 IU/L, the BUN [2] was 17 mg/dL and the CRE [2] was 0.2 mg/dL. The Ca [2] was 11.4 mg/dL, the Cl [2] was 109 meq/L and the GLC [2] was 165.7 mg/dL. It also gave an IP [2] of 6.6 mg/dL, a K [2] of 4.4 meq/L and an LDH [2] of 100.3 IU/L. For the same compound, the Na [2] was 143.3 meq/L, the PL [2] was 148.7 mg/dL and the RALB [2] was 2.5 g/dL. It also gave a TC [2] of 67 mg/dL, a TG [2] of 89.3 mg/dL and a TP [2] of 5.3 g/dL. It also gave a gamma-GTP [2] of 1.3 IU/L, a TERMINAL_BW [3] of 253.6 g and a TERMINAL_BW [4] of 281.5 g. It also gave a TERMINAL_BW [5] of 383.3 g, an APTT [3] of 16.6 s and a Bas [3] of 1%. For the same compound, the Eos [3] was 0.7%, the Fbg [3] was 290.7 mg/dL and the Hb [3] was 12.6 g/dL. The Ht [3] was 37%, the Lym [3] was 72.3% and the MCH [3] was 20.5 pg. The MCHC [3] was 34%, the MCV [3] was 60.2 fL and the Mono [3] was 3%. It also gave a Neu [3] of 23.3%, a PT [3] of 14.1 s and a Plat [3] of 156 x10_4/uL. The RBC [3] was 616 x10_4/ul, the Ret [3] was 7.7% and the WBC [3] was 161.4 x10_2/uL. For the same compound, the APTT [4] was 32.8 s, the Bas [4] was 0.7% and the Eos [4] was 0.3%. The Fbg [4] was 473.3 mg/dL, the Hb [4] was 14 g/dL and the Ht [4] was 41.7%. The Lym [4] was 53.3%, the MCH [4] was 21.1 pg and the MCHC [4] was 33.5%. The MCV [4] was 63.2 fL, the Mono [4] was 3.7% and the Neu [4] was 41.7%. For the same compound, the PT [4] was 13.2 s, the Plat [4] was 171.8 x10_4/uL and the RBC [4] was 674 x10_4/ul. It also gave a Ret [4] of 13.6%, a WBC [4] of 149.3 x10_2/uL and an APTT [5] of 17.1 s. It also gave a Bas [5] of 0%, an Eos [5] of 0.5% and a Fbg [5] of 334.5 mg/dL. For the same compound, the Hb [5] was 12.2 g/dL, the Ht [5] was 36% and the Lym [5] was 69%. For the same compound, the MCH [5] was 19.6 pg, the MCHC [5] was 34% and the MCV [5] was 57.6 fL. The Mono [5] was 2.5%, the Neu [5] was 27.5% and the PT [5] was 13.9 s. For the same compound, the Plat [5] was 139.6 x10_4/uL, the RBC [5] was 626 x10_4/ul and the Ret [5] was 7.5%. It also gave a WBC [5] of 154.4 x10_2/uL, a KIDNEY_L [3] of 1.1 g and a KIDNEY_R [3] of 1.1 g. For the same compound, the KIDNEY_TOTAL [3] was 2.3 g, the KIDNEY_L [4] was 2.1 g and the KIDNEY_R [4] was 1.8 g. The KIDNEY_TOTAL [4] was 4 g, the KIDNEY_L [5] was 1.7 g and the KIDNEY_R [5] was 1.6 g. It also gave a KIDNEY_TOTAL [5] of 3.3 g, an LIVER [3] of 12.5 g and an LIVER [4] of 13.5 g. The LIVER [5] was 18.7 g, the A/G [3] was 0.9 and the ALP [3] was 1573.3 IU/L. It also gave an ALT [3] of 38 IU/L, an AST [3] of 62.7 IU/L and a BUN [3] of 20 mg/dL. The CRE [3] was 0.3 mg/dL, the Ca [3] was 11.5 mg/dL and the Cl [3] was 107 meq/L. The GLC [3] was 177.3 mg/dL, the IP [3] was 6.3 mg/dL and the K [3] was 4.3 meq/L. For the same compound, the LDH [3] was 117 IU/L, the Na [3] was 144 meq/L and the PL [3] was 155.7 mg/dL. The RALB [3] was 2.6 g/dL, the TC [3] was 87.7 mg/dL and the TG [3] was 75.3 mg/dL. It also gave a TP [3] of 5.6 g/dL, a gamma-GTP [3] of 1 IU/L and an A/G [4] of 0.9. It also gave an ALP [4] of 1270.3 IU/L, an ALT [4] of 38.3 IU/L and an AST [4] of 57.3 IU/L. The BUN [4] was 118.3 mg/dL, the CRE [4] was 0.5 mg/dL and the Ca [4] was 11.8 mg/dL. It also gave a Cl [4] of 105.7 meq/L, a GLC [4] of 156.7 mg/dL and an IP [4] of 11 mg/dL. It also gave a K [4] of 5.2 meq/L, an LDH [4] of 210 IU/L and a Na [4] of 145.3 meq/L. The PL [4] was 140.7 mg/dL, the RALB [4] was 2.9 g/dL and the TC [4] was 65 mg/dL. It also gave a TG [4] of 94.7 mg/dL, a TP [4] of 6.3 g/dL and a gamma-GTP [4] of 2 IU/L. For the same compound, the A/G [5] was 0.9, the ALP [5] was 1013.5 IU/L and the ALT [5] was 36.5 IU/L. The AST [5] was 61.5 IU/L, the BUN [5] was 20 mg/dL and the CRE [5] was 0.3 mg/dL. The Ca [5] was 10.8 mg/dL, the Cl [5] was 105 meq/L and the GLC [5] was 182.5 mg/dL. For the same compound, the IP [5] was 5.5 mg/dL, the K [5] was 4.2 meq/L and the LDH [5] was 155.5 IU/L. For the same compound, the Na [5] was 144.5 meq/L, the PL [5] was 166 mg/dL and the RALB [5] was 2.5 g/dL. The TC [5] was 80 mg/dL, the TG [5] was 92 mg/dL and the TP [5] was 5.5 g/dL. It also gave a gamma-GTP [5] of 1 IU/L.

Reference: ChEMBL document CHEMBL3885861, “Open TG-GATES”
